One test concerns the target ALPK1 (Homo sapiens (Human), UniProt Q96QP1). Nature of the test: ALPK1 in vitro kinase assay (HTRF of TIFA phosphorylation). The test is classed as biochemical.
Test [1] concerns ALPK1-dependent NFκB reporter gene activation in HEK293 cells stably expressing an NF-kB reporter (G9 cells). The test can be described thus: NFκB gene reporter alkaline phosphatase assay. In kind it is cell-based. The note with it: read-out: NFkB assay IC50. An outline of the steps: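 HEK293 G9 cells stably carrying an NF-kB alkaline phosphatase reporter were seeded at 10,000 cells/well in Freestyle 293 medium and attached overnight. They were pretreated with serially diluted compound for 30 min, then stimulated with D-glycero-D-manno-6-fluoro-heptose-1β-S-ADP. Reporter phosphatase was read with pNPP; IC50 from logistic fit.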

Where two headings read alike, the source gives them in different places.

Sequence of ALPK1 (Q96QP1 whole entry): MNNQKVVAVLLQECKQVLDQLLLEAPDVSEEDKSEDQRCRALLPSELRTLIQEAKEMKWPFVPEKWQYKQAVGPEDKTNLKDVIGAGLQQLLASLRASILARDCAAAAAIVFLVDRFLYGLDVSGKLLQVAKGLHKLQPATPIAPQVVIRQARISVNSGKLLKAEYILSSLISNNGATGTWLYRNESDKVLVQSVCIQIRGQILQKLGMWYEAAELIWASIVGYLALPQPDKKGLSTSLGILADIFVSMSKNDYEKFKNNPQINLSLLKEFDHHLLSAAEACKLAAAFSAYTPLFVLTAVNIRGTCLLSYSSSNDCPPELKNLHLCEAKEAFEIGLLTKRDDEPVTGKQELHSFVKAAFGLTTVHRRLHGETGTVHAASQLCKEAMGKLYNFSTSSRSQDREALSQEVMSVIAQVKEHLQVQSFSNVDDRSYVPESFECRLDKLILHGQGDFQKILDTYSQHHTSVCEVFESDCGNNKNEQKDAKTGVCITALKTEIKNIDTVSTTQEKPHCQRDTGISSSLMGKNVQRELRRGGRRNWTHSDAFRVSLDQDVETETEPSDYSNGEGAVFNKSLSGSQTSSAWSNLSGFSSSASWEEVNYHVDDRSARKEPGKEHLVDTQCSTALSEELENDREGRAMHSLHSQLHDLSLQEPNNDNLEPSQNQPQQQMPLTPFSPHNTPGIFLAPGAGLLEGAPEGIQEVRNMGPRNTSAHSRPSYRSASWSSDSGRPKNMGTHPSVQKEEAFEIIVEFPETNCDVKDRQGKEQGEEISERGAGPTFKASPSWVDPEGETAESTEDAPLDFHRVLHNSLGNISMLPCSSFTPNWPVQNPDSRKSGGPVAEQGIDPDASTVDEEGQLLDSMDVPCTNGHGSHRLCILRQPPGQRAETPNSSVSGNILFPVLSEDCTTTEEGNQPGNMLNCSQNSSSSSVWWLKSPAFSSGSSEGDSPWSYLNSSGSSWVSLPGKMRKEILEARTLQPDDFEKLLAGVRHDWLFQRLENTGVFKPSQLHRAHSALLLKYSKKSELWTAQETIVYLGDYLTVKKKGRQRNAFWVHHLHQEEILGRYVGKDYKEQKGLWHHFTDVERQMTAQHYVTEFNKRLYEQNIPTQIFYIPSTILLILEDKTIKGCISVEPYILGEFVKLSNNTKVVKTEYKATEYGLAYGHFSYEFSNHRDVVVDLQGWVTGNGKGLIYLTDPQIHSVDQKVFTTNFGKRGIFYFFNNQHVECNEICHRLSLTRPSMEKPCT

For orientation: IC50 means the concentration at which inhibition is half-maximal. As for `COc1ccc(C(C)(C)c2csc(NC(=O)NCC3CC(N)C3)n2)cc1` (stereo not shown) [Example A190, 1-((3-aminocyclobutyl)methyl)-3-(4-(2-(4-methoxyphenyl)propan-2-yl)thiazol-2-yl)urea], the IC50 against ALPK1 turned out to be 458 nM; in test [1] (Homo sapiens, HEK293) it was 3020 nM.

For `C#CC(C)(c1ccc(OC)cc1)c1csc(NC(N)=O)n1` (stereo not shown) [Example A171, 1-(4-(2-(4-methoxyphenyl)but-3-yn-2-yl)thiazol-2-yl)urea], the 50% inhibitory concentration (IC50) came to 16 nM against ALPK1 and 730 nM in test [1] (Homo sapiens, HEK293).

In the case of `COc1ccc(C(C)(C)c2csc(NC(=O)NCCc3ccncc3)n2)cc1` [Example A124, 1-(4-(2-(4-methoxyphenyl)propan-2-yl)thiazol-2-yl)-3-(2-(pyridin-4-yl)ethyl)urea], the IC50 against ALPK1 was 165 nM; in test [1] (Homo sapiens, HEK293) it was 1050 nM.

As to `C#C[C@](C)(c1ccc(Br)cc1)c1csc(NC(=O)NCCO)n1` [Example A161, (R)-1-(4-(2-(4-bromophenyl)but-3-yn-2-yl)thiazol-2-yl)-3-(2-hydroxyethyl)urea], the half-maximal inhibitory concentration (IC50) turned out to be 68 nM at ALPK1 and 550 nM in test [1] (Homo sapiens, HEK293).

Regarding `CC(C)(c1ccc(Br)cc1)c1csc(NC(=O)NCc2ccnc(N3CCNCC3)c2)n1` [Example A181, 1-(4-(2-(4-bromophenyl)propan-2-yl)thiazol-2-yl)-3-((2-(piperazin-1-yl)pyridin-4-yl)methyl)urea], the IC50 against ALPK1 was 131 nM; in test [1] (Homo sapiens, HEK293), 1520 nM.

Take `COc1ccc(C(C)(C)c2csc(NC(=O)NCc3cnc(N4CCNCC4)nc3C)n2)cc1` [Example A223, 1-(4-(2-(4-methoxyphenyl)propan-2-yl)thiazol-2-yl)-3-((4-methyl-2-(piperazin-1-yl)pyrimidin-5-yl)methyl)urea]: the IC50 against ALPK1 was found to be 49 nM; in test [1] (Homo sapiens, HEK293), 760 nM.

For `CC(C)(c1ccc(Br)cc1)c1csc(NC(=O)NCc2ccc(OCCN3CCNCC3)cc2)n1` [Example A034, 1-(4-(2-(4-bromophenyl)propan-2-yl)thiazol-2-yl)-3-(4-(2-(piperazin-1-yl)ethoxy)benzyl)urea], the IC50 was found to be 114 nM against ALPK1 and 730 nM in test [1] (Homo sapiens, HEK293).

Take `COc1ccc(C(C)(C)c2csc(NC(=O)NCc3ccc(NC4CCNCC4)cc3)n2)cc1` [Example A041, 1-(4-(2-(4-methoxyphenyl)propan-2-yl)thiazol-2-yl)-3-(4-(piperidin-4-ylamino)benzyl)urea]: the IC50 stood at 23 nM against ALPK1 and 1860 nM in test [1] (Homo sapiens, HEK293).

`CC(C)(c1ccc(Br)cc1)c1csc(NC(=O)NCc2ccc(NCCN)cc2)n1` [Example A205, 1-(4-((2-aminoethyl)amino)ben-zyl)-3-(4-(2-(4-bromophenyl)propan-2-yl)thiazol-2-yl)urea]: the IC50 came out at 59 nM on ALPK1 and 1480 nM in test [1] (Homo sapiens, HEK293).

Regarding `COc1ccc(C(C)(C)c2csc(NC(=O)NCc3cc(F)c(N4CCNCC4)c(F)c3)n2)cc1` [Example A040, 1-(3,5-difluoro-4-(piperazin-1-yl)benzyl)-3-(4-(2-(4-methoxyphenyl)propan-2-yl)thiazol-2-yl)urea], the half-inhibitory concentration (IC50) on ALPK1 amounted to 45 nM; in test [1] (Homo sapiens, HEK293), 500 nM.

On to `COc1ccc(C(C)(C)c2csc(NC(=O)NCc3cnc(N4CCC(C(N)=O)CC4)nc3)n2)cc1` [Example A215, 1-(5-((3-(4-(2-(4-methoxyphenyl)propan-2-yl)thiazol-2-yl)ureido)methyl)pyrimi-din-2-yl)piperidine-4-carboxamide], for which the half-inhibitory concentration (IC50) on ALPK1 is 150 nM; in test [1] (Homo sapiens, HEK293), 2210 nM.

For the compound `COc1ccc(C(C)(C)c2csc(NC(=O)NCc3ccc(NCCO)nc3)n2)cc1` [Example A014, 1-((6-((2-hydroxyethyl)amino)pyri-din-3-yl)methyl)-3-(4-(2-(4-methoxyphenyl)propan-2-yl)thiazol-2-yl)urea], the IC50 against ALPK1 stood at 160 nM; in test [1] (Homo sapiens, HEK293), 880 nM.

Turning to `COc1cc(CNC(=O)Nc2nc(C(C)(C)c3ccc(Br)cc3)cs2)ccc1N1CCNCC1` [Example A220, 1-(4-(2-(4-bromophenyl)propan-2-yl)thiazol-2-yl)-3-(3-methoxy-4-(piperazin-1-yl)benzyl)urea], the IC50 against ALPK1 amounted to 44 nM; in test [1] (Homo sapiens, HEK293), 1320 nM.

Turning to `C#C[C@@](C)(c1ccc(F)cc1)c1csc(NC(=O)NCCO)n1` [Example A283, 1-(4-(2-(4-fluorophenyl)but-3-yn-2-yl)thiazol-2-yl)-3-(2-hydroxyethyl)urea], the IC50 on ALPK1 came out at 550 nM; in test [1] (Homo sapiens, HEK293), 1700 nM.

Take `COc1ccc(C(C)(C)c2csc(NC(=O)NCc3ccc(N4CC5CC4CN5)cc3)n2)cc1` (stereo not shown) [Example A062, 1-(4-(2,5-diazabicyclo[2.2.1]heptan-2-yl)benzyl)-3-(4-(2-(4-methoxyphenyl)propan-2-yl)thiazol-2-yl)urea]: the IC50 was found to be 60 nM on ALPK1 and 1330 nM in test [1] (Homo sapiens, HEK293).

With `C#CC(C)(c1ccc(Br)cc1)c1csc(NC(=O)NCCCO)n1` (stereo not shown) [Example A154, 1-(4-(2-(4-bromophenyl)but-3-yn-2-yl)thiazol-2-yl)-3-(3-hydroxypropyl)urea], the IC50 at ALPK1 was 21 nM; in test [1] (Homo sapiens, HEK293), 380 nM.

With `COc1ccc(C(C)(C)c2csc(NC(=O)NCCCN3CCC(O)C3)n2)cc1` (stereo not shown) [Example A135, 1-(3-(3-hydroxypyrrolidin-1-yl)propyl)-3-(4-(2-(4-methoxyphenyl)propan-2-yl)thiazol-2-yl)urea], the IC50 was found to be 112 nM against ALPK1 and 1240 nM in test [1] (Homo sapiens, HEK293).

As for `CC(O)(c1ccc(Br)cc1)c1csc(NC(=O)NCc2ccc(N3CCNCC3)c(F)c2)n1` (stereo not shown) [Example A056, 1-(4-(1-(4-bromophenyl)-1-hydroxyethyl)thiazol-2-yl)-3-(3-fluoro-4-(piperazin-1-yl)benzyl)urea], the IC50 on ALPK1 was found to be 176 nM; in test [1] (Homo sapiens, HEK293) it was 1060 nM.

For `COc1ccc(C(C)(C)c2csc(NC(=O)NCCCN(C)C)n2)cc1` [Example A145, 1-(3-(dimethylamino)propyl)-3-(4-(2-(4-methoxyphenyl)propan-2-yl)thiazol-2-yl)urea], the IC50 at ALPK1 was determined as 216 nM; in test [1] (Homo sapiens, HEK293), 4490 nM.

In the case of `CC(c1ccc(Br)cc1)c1csc(NC(=O)NCc2ccc(N3CCNCC3)cc2)n1` (stereo not shown) [Example A044, 1-(4-(1-(4-bromophenyl)ethyl)thiazol-2-yl)-3-(4-(piperazin-1-yl)benzyl)urea], the concentration for half-maximal inhibition (IC50) turned out to be 147 nM against ALPK1 and 1110 nM in test [1] (Homo sapiens, HEK293).

On to `CC(C)(c1ccc(Br)cc1)c1csc(NC(=O)NCc2ccc(N3CCNCC3)c(F)c2)n1` [Example A050, 1-(4-(2-(4-bromophenyl)propan-2-yl)thiazol-2-yl)-3-(3-fluoro-4-(piperazin-1-yl)benzyl)urea], for which the IC50 at ALPK1 amounted to 26 nM; in test [1] (Homo sapiens, HEK293), 1210 nM.

With `COCCNC(=O)Nc1nc(C(C)(C)c2ccc(OC)cc2)cs1` [Example A110, 1-(2-methoxyethyl)-3-(4-(2-(4-methoxyphenyl)propan-2-yl)thiazol-2-yl)urea], the IC50 was 193 nM against ALPK1 and 940 nM in test [1] (Homo sapiens, HEK293).

Consider `CN(C)C1CCN(c2ccc(CNC(=O)Nc3nc(C(C)(C)c4ccc(Br)cc4)cs3)cn2)C1` (stereo not shown) [Example A106, 1-(4-(2-(4-bromophenyl)propan-2-yl)thiazol-2-yl)-3-((6-(3-(dimethylamino)pyrrolidin-1-yl)pyridin-3-yl)methyl)urea], for which the concentration for half-maximal inhibition (IC50) at ALPK1 was determined as 48 nM; in test [1] (Homo sapiens, HEK293), 6720 nM.

For `C#CC(C)(c1ccc(Cl)cc1)c1csc(NC(=O)N2CCC(CO)CC2)n1` (stereo not shown) [Example A264, N-(4-(2-(4-chlorophenyl)but-3-yn-2-yl)thiazol-2-yl)-4-(hydroxymethyl)piperidine-1-carboxamide], the half-inhibitory concentration (IC50) against ALPK1 worked out at 1370 nM; in test [1] (Homo sapiens, HEK293), 2810 nM.

On to `CCN(CC)CCCNC(=O)Nc1nc(C(C)(C)c2ccc(OC)cc2)cs1` [Example A146, 1-(3-(diethylamino)propyl)-3-(4-(2-(4-methoxyphenyl)propan-2-yl)thiazol-2-yl)urea], for which the IC50 against ALPK1 came to 124 nM; in test [1] (Homo sapiens, HEK293), 3070 nM.

For `CC(C)(c1ccc(Br)cc1)c1csc(NC(=O)NCc2ccc(NCCN)c(F)c2)n1` [Example A198, 1-(4-((2-aminoethyl)amino)-3-fluorobenzyl)-3-(4-(2-(4-bromophenyl)propan-2-yl)thiazol-2-yl)urea], the IC50 turned out to be 18 nM against ALPK1 and 1320 nM in test [1] (Homo sapiens, HEK293).

As to `CC(C)(c1ccc(I)cc1)c1csc(NC(=O)NCc2ccc(N3CCNCC3)cc2)n1` [Example A067, 1-(4-(2-(4-iodophenyl)propan-2-yl)thiazol-2-yl)-3-(4-(piperazin-1-yl)benzyl)urea], the IC50 against ALPK1 is 28 nM; in test [1] (Homo sapiens, HEK293) it was 1110 nM.

Take `CC(C)(c1ccc(Br)cc1)c1csc(NC(=O)NCc2ccc(N3CCC(N)C3)nc2)n1` (stereo not shown) [Example A189, 1-((6-(3-aminopyrrolidin-1-yl)pyridin-3-yl)methyl)-3-(4-(2-(4-bromophenyl)propan-2-yl)thiazol-2-yl)urea]: the IC50 against ALPK1 is 41 nM; in test [1] (Homo sapiens, HEK293), 2310 nM.

For `C#C[C@@](C)(c1ccc(Br)cc1)c1csc(NC(=O)NCC(C)(C)O)n1` (stereo in doubt) [Example A306, 1-[4-[1-(4-bromophenyl)-1-methyl-prop-2-ynyl]thiazol-2-yl]-3-(2-hydroxy-2-methyl-propyl)urea], the IC50 on ALPK1 worked out at 56 nM; in test [1] (Homo sapiens, HEK293), 830 nM.

As for `C#C[C@](C)(c1ccc(Cl)cc1)c1csc(NC(=O)NC2(CO)CC2)n1` [Example A296], the IC50 against ALPK1 was 114 nM; in test [1] (Homo sapiens, HEK293), 4790 nM.

`COc1ccc(C(C)(C)c2csc(NC(=O)NCc3ccc(NCCO)nc3)n2)cc1` [Example A022, 1-((6-((2-hydroxyethyl)amino)pyri-din-3-yl)methyl)-3-(4-(2-(4-methoxyphenyl)propan-2-yl)thiazol-2-yl)urea]: the IC50 on ALPK1 is 232 nM; in test [1] it was 960 nM.

On to `COc1ccc(C(C)(C)c2csc(NC(=O)NCc3ccc(C(=O)NC4CCN(C)CC4)nc3)n2)cc1` [Example A120, 5-((3-(4-(2-(4-methoxyphenyl)propan-2-yl)thiazol-2-yl)ureido)methyl)-N-(1-methylpiperidin-4-yl)picolinamide], for which the IC50 on ALPK1 was found to be 53 nM; in test [1] (Homo sapiens, HEK293), 990 nM.

Values taken from patent US20240109853A1 (Shanghai Yao Yuan Biotechnology Co., Ltd., priority 2020, published 2024).
